{"source": "ChEMBL document CHEMBL3596124", "about": "“New anti-trypanosomal active tetracyclic iridoid isolated from Morinda lucida Benth” (Bioorg Med Chem Lett, 2015)", "key": {"[1]": {"tested_on": "Trypanosoma brucei brucei", "test": "Anti-trypanosomal activity against Trypanosoma brucei brucei GUTat 3.1 bloodstream forms assessed as reduction in parasitemia incubated for 48 hrs by alamar blue assay", "assay_type": "functional, organism-based", "conditions": "GUTat 3.1, 48 h"}, "[2]": {"test": "Cytotoxicity against human NB1RGB cells assessed as reduction in cell viability incubated for 48 hrs by MTT assay", "assay_type": "cell-based"}, "[3]": {"test": "Cytotoxicity against human HF19 cells assessed as reduction in cell viability incubated for 48 hrs by MTT assay", "assay_type": "cell-based", "conditions": "HF19, 48 h"}, "Caco-2": {"tested_on": "Caco-2", "test": "Cytotoxicity against human Caco2 cells assessed as reduction in cell viability incubated for 48 hrs by MTT assay", "assay_type": "functional, cell-based", "conditions": "Caco-2, 48 h"}, "LoVo": {"tested_on": "LoVo", "test": "Cytotoxicity against human LoVo cells assessed as reduction in cell viability incubated for 48 hrs by MTT assay", "assay_type": "functional, cell-based"}, "HCT-15": {"tested_on": "HCT-15", "test": "Cytotoxicity against human HCT15 cells assessed as reduction in cell viability incubated for 48 hrs by MTT assay", "assay_type": "functional, cell-based", "conditions": "HCT-15, 48 h"}, "[4]": {"test": "Cytotoxicity against human KATO III cells assessed as reduction in cell viability incubated for 48 hrs by MTT assay", "assay_type": "functional, cell-based"}, "Jurkat": {"tested_on": "Jurkat", "test": "Cytotoxicity against human Jurkat cells assessed as reduction in cell viability incubated for 48 hrs by MTT assay", "assay_type": "functional, cell-based"}, "U-937": {"tested_on": "U-937", "test": "Cytotoxicity against human U937 cells assessed as reduction in cell viability incubated for 48 hrs by MTT assay", "assay_type": "functional, cell-based", "conditions": "U-937, 48 h"}, "HL-60": {"tested_on": "HL-60", "test": "Cytotoxicity against human HL60 cells assessed as reduction in cell viability incubated for 48 hrs by MTT assay", "assay_type": "functional, cell-based", "conditions": "HL-60, 48 h"}, "THP-1": {"tested_on": "THP-1", "test": "Cytotoxicity against human THP1 cells assessed as reduction in cell viability incubated for 48 hrs by MTT assay", "assay_type": "functional, cell-based", "conditions": "THP-1, 48 h"}, "[5]": {"test": "Selectivity index, ratio of IC50 for human NB1RGB cells to IC50 for Trypanosoma brucei brucei GUTat 3.1 bloodstream forms", "assay_type": "toxicity, cell-based", "conditions": "read-out: Ratio IC50"}, "[6]": {"test": "Selectivity index, ratio of IC50 for human HF19 cells to IC50 for Trypanosoma brucei brucei GUTat 3.1 bloodstream forms", "assay_type": "toxicity, cell-based", "conditions": "read-out: Ratio IC50"}, "[7]": {"test": "Selectivity index, ratio of IC50 for human Caco2 cells to IC50 for Trypanosoma brucei brucei GUTat 3.1 bloodstream forms", "assay_type": "functional, Caco-2"}, "[8]": {"test": "Selectivity index, ratio of IC50 for human LoVo cells to IC50 for Trypanosoma brucei brucei GUTat 3.1 bloodstream forms", "assay_type": "functional"}, "[9]": {"test": "Selectivity index, ratio of IC50 for human HCT15 cells to IC50 for Trypanosoma brucei brucei GUTat 3.1 bloodstream forms", "assay_type": "functional, HCT-15"}, "[10]": {"test": "Selectivity index, ratio of IC50 for human KATO III cells to IC50 for Trypanosoma brucei brucei GUTat 3.1 bloodstream forms", "assay_type": "functional, KATO III cell"}, "[11]": {"test": "Selectivity index, ratio of IC50 for human Jurkat cells to IC50 for Trypanosoma brucei brucei GUTat 3.1 bloodstream forms", "assay_type": "functional"}, "[12]": {"test": "Selectivity index, ratio of IC50 for human U937 cells to IC50 for Trypanosoma brucei brucei GUTat 3.1 bloodstream forms", "assay_type": "functional, U-937"}, "[13]": {"test": "Selectivity index, ratio of IC50 for human HL60 cells to IC50 for Trypanosoma brucei brucei GUTat 3.1 bloodstream forms", "assay_type": "functional, HL-60"}, "[14]": {"test": "Selectivity index, ratio of IC50 for human THP1 cells to IC50 for Trypanosoma brucei brucei GUTat 3.1 bloodstream forms", "assay_type": "functional, THP-1"}}, "data": [{"molecule": "COC(=O)C1=CO[C@@H]2O[C@H]3/C(=C\\c4ccc(O)c(OC)c4)C(=O)O[C@]34C=C[C@H]1[C@H]24", "values": [{"measurement": "IC50", "setting": "[1]", "value": 1.27, "unit": "µM"}, {"measurement": "IC50", "setting": "[2]", "value": 6.01, "unit": "µM"}, {"measurement": "IC50", "setting": "[3]", "value": 12.1, "unit": "µM"}, {"measurement": "IC50", "setting": "Caco-2", "value": 1.35, "unit": "µM"}, {"measurement": "IC50", "setting": "LoVo", "value": 0.11, "unit": "µM"}, {"measurement": "IC50", "setting": "HCT-15", "value": 16, "unit": "µM"}, {"measurement": "IC50", "setting": "[4]", "value": 0.21, "unit": "µM"}, {"measurement": "IC50", "setting": "Jurkat", "value": 2.45, "unit": "µM"}, {"measurement": "IC50", "setting": "U-937", "value": 4.08, "unit": "µM"}, {"measurement": "IC50", "setting": "HL-60", "value": 3.87, "unit": "µM"}, {"measurement": "IC50", "setting": "THP-1", "value": 6.98, "unit": "µM"}, {"measurement": "selectivity ratio", "setting": "[5]", "value": 4.73}, {"measurement": "selectivity ratio", "setting": "[6]", "value": 9.54}, {"measurement": "Ratio IC50", "setting": "[7]", "value": 1.06}, {"measurement": "Ratio IC50", "setting": "[8]", "value": 0.09}, {"measurement": "Ratio IC50", "setting": "[9]", "value": 12.63}, {"measurement": "Ratio IC50", "setting": "[10]", "value": 0.17}, {"measurement": "Ratio IC50", "setting": "[11]", "value": 1.93}, {"measurement": "Ratio IC50", "setting": "[12]", "value": 3.21}, {"measurement": "Ratio IC50", "setting": "[13]", "value": 3.05}, {"measurement": "Ratio IC50", "setting": "[14]", "value": 5.5}]}]}
